Assay results published in patent US20230123601A1, “PHARMACEUTICAL COMBINATION OF ANTIVIRAL AGENTS TARGETING HBV AND/OR AN IMMUNE MODULATOR FOR TREATMENT OF HBV” (priority 2019, published 2023).

Test system: HBV
Assay: HBsAg levels in serum of AAV/HBV mice (CLIA)
Type: in vivo, C57BL/6 mice
Design: HBsAg levels in serum (Average ± SD): scale not given here
Source text: The AAV-HBV mouse model is generated by injecting C57BL/6 mice with recombinant adeno-associated virus harboring a replicable HBV genome (AAV-HBV). The rAAV8-1.3 HBV ayw virus stock was purchased from Beijing FivePlus Molecular Medicine Institute (Beijing, China). The animals (male, aged 4-5 weeks upon arrival) were purchased from SLAC Laboratory Animal Co. Ltd (Shanghai, China), acclimatized in the animal facility for 5-7 days, and then injected with 1×10^11 vector genome of AAV-HBV (diluted in 200 μL of PBS) through the tail vein. Persistence expression of HBV genome can be established after three weeks, with high levels of HBV viral markers including HBV DNA, HBsAg, and HBeAg in mouse serum. With stable HBV viremia and competent immune system of the C57BL/6 mice, the AAV-HBV mouse model was used to evaluate the in vivo anti-HBV efficacy of the compounds. The in-life part of the AAV-HBV study was conducted through contracted service at Covance Pharmaceutical Research and Development (Shanghai) Co. Ltd. (Covance Shanghai) and the post-life analysis using the serum was performed internally at Roche Innovation Center Shanghai (RICS).
Seven days before compound treatment, blood samples were collected for serum preparation (˜15 μL), and based on HBV DNA, HBsAg levels in serum and body weight, the AAV-HBV infected animals were stratified into the different treatment groups.
Saline (Group 01) and anti-HBV ASO of CMP ID NO: 15_1 at 1.5 or 7.5 mg/kg were dosed sub subcutaneously once a week during Day 0-49 on Days 0, 7, 14, 21, 28, 35, 42 and 49. TLR7 agonist of CMP ID NO: VI 100 mg/kg was administered by oral gavage once every other day during Day 0-55 (QOD) or once weekly during Day 0-49 on Days 0, 7, 14, 21, 28, 35, 42 and 49 (QW). The animals were weekly bled via retro-orbital sinus for sample collection throughout the study.
Serum HBsAg levels were determined in the serum of infected AAV-HBV mouse using the HBsAg chemoluminescence immunoassay (CLIA) (Autobio diagnostics Co. Ltd., Zhengzhou, China, Cat. no. CL0310-2), according to the manufacturer's protocol. Briefly, 50 μl of serum was transferred to the antibody coated microtiter plate and 50 μl of enzyme conjugate reagent was added. The plate was incubated for 60 min on a shaker at room temperature before all wells were washed six times with washing buffer using an automatic washer. 25 μl of substrate A and then 25 μl of substrate B was added to each well. The plate was incubated for 10 min at RT before luminescence was measured using an Envision luminescence reader (Perkin Elmer). HBsAg is given in the unit IU/ml; where 1 ng HBsAg=1.14 IU.
To evaluate the combination of the anti-HBV ASO and the TLR7 agonist in an in vivo system, a mouse model of chronic HBV infection was used. In the AAV/HBV mouse model described in the Materials and Method a persistent HBV infection is established resulting in expression of viral markers (HBsAg, HBeAg, HBV DNA) detectable in plasma. The effect on these viral markers upon treatment with the anti-HBV ASO of CMP ID NO: 15_1 (table 2, and FIG. 4) dosed at 1.5 mg/kg or 7.5 mg/kg and the TLR7 agonist of CMP ID NO: VI (table 3) dosed with […] every other day (QOD) or once weekly (QW) in monotherapy or in combination has been evaluated.

CC[C@H](OC(C)=O)[C@@H]1C[C@@H](O)[C@H](n2c(=O)sc3cnc(N)nc32)O1 [CMP ID NO: VI, [(1S)-1-[(2S,4R,5R)-5-(5-amino-2-oxo-thiazolo[4,5-d]pyrimidin-3-yl)-4-hydroxy-tetrahydrofuran-2-yl]propyl] acetate]
HBsAg levels in serum (Average ± SD) (D0, 15_1 1.5 mg/kg weekly, VI 100 mg/kg QOD, or combination of both): 4.14 ± 0.37
HBsAg levels in serum (Average ± SD) (D0, 15_1 1.5 mg/kg weekly, VI 100 mg/kg QW, or combination of both): 4.07 ± 0.44
HBsAg levels in serum (Average ± SD) (D0, 15_1 7.5 mg/kg weekly, VI 100 mg/kg QOD, or combination of both): 4.14 ± 0.37
HBsAg levels in serum (Average ± SD) (D0, 15_1 7.5 mg/kg weekly, VI 100 mg/kg QW, or combination of both): 4.07 ± 0.44
HBsAg levels in serum (Average ± SD) (D7, 15_1 1.5 mg/kg weekly, VI 100 mg/kg QOD, or combination of both): 3.68 ± 1.03
HBsAg levels in serum (Average ± SD) (D7, 15_1 1.5 mg/kg weekly, VI 100 mg/kg QW, or combination of both): 3.72 ± 0.85
HBsAg levels in serum (Average ± SD) (D7, 15_1 7.5 mg/kg weekly, VI 100 mg/kg QOD, or combination of both): 3.68 ± 1.03
HBsAg levels in serum (Average ± SD) (D7, 15_1 7.5 mg/kg weekly, VI 100 mg/kg QW, or combination of both): 3.72 ± 0.85
HBsAg levels in serum (Average ± SD) (D14, 15_1 1.5 mg/kg weekly, VI 100 mg/kg QOD, or combination of both): 3.11 ± 1.35
HBsAg levels in serum (Average ± SD) (D14, 15_1 1.5 mg/kg weekly, VI 100 mg/kg QW, or combination of both): 3.52 ± 0.96
HBsAg levels in serum (Average ± SD) (D14, 15_1 7.5 mg/kg weekly, VI 100 mg/kg QOD, or combination of both): 3.11 ± 1.35
HBsAg levels in serum (Average ± SD) (D14, 15_1 7.5 mg/kg weekly, VI 100 mg/kg QW, or combination of both): 3.52 ± 0.96
HBsAg levels in serum (Average ± SD) (D21, 15_1 1.5 mg/kg weekly, VI 100 mg/kg QOD, or combination of both): 2.62 ± 1.41
HBsAg levels in serum (Average ± SD) (D21, 15_1 1.5 mg/kg weekly, VI 100 mg/kg QW, or combination of both): 3.07 ± 1.22
HBsAg levels in serum (Average ± SD) (D21, 15_1 7.5 mg/kg weekly, VI 100 mg/kg QOD, or combination of both): 2.62 ± 1.41
HBsAg levels in serum (Average ± SD) (D21, 15_1 7.5 mg/kg weekly, VI 100 mg/kg QW, or combination of both): 3.07 ± 1.22
HBsAg levels in serum (Average ± SD) (D28, 15_1 1.5 mg/kg weekly, VI 100 mg/kg QOD, or combination of both): 2.21 ± 1.28
HBsAg levels in serum (Average ± SD) (D28, 15_1 1.5 mg/kg weekly, VI 100 mg/kg QW, or combination of both): 2.65 ± 1.37
HBsAg levels in serum (Average ± SD) (D28, 15_1 7.5 mg/kg weekly, VI 100 mg/kg QOD, or combination of both): 2.21 ± 1.28
HBsAg levels in serum (Average ± SD) (D28, 15_1 7.5 mg/kg weekly, VI 100 mg/kg QW, or combination of both): 2.65 ± 1.37
HBsAg levels in serum (Average ± SD) (D35, 15_1 1.5 mg/kg weekly, VI 100 mg/kg QOD, or combination of both): 1.78 ± 1.18
HBsAg levels in serum (Average ± SD) (D35, 15_1 1.5 mg/kg weekly, VI 100 mg/kg QW, or combination of both): 2.49 ± 1.29
HBsAg levels in serum (Average ± SD) (D35, 15_1 7.5 mg/kg weekly, VI 100 mg/kg QOD, or combination of both): 1.78 ± 1.18
HBsAg levels in serum (Average ± SD) (D35, 15_1 7.5 mg/kg weekly, VI 100 mg/kg QW, or combination of both): 2.49 ± 1.29
HBsAg levels in serum (Average ± SD) (D42, 15_1 1.5 mg/kg weekly, VI 100 mg/kg QOD, or combination of both): 1.57 ± 0.97
HBsAg levels in serum (Average ± SD) (D42, 15_1 1.5 mg/kg weekly, VI 100 mg/kg QW, or combination of both): 2.28 ± 1.28
HBsAg levels in serum (Average ± SD) (D42, 15_1 7.5 mg/kg weekly, VI 100 mg/kg QOD, or combination of both): 1.57 ± 0.97
HBsAg levels in serum (Average ± SD) (D42, 15_1 7.5 mg/kg weekly, VI 100 mg/kg QW, or combination of both): 2.28 ± 1.28
HBsAg levels in serum (Average ± SD) (D49, 15_1 1.5 mg/kg weekly, VI 100 mg/kg QOD, or combination of both): 1.63 ± 0.86
HBsAg levels in serum (Average ± SD) (D49, 15_1 1.5 mg/kg weekly, VI 100 mg/kg QW, or combination of both): 1.9 ± 1.07
HBsAg levels in serum (Average ± SD) (D49, 15_1 7.5 mg/kg weekly, VI 100 mg/kg QOD, or combination of both): 1.63 ± 0.86
HBsAg levels in serum (Average ± SD) (D49, 15_1 7.5 mg/kg weekly, VI 100 mg/kg QW, or combination of both): 1.90 ± 1.07
HBsAg levels in serum (Average ± SD) (D56, 15_1 1.5 mg/kg weekly, VI 100 mg/kg QOD, or combination of both): 1.56 ± 0.77
HBsAg levels in serum (Average ± SD) (D56, 15_1 1.5 mg/kg weekly, VI 100 mg/kg QW, or combination of both): 2.13 ± 1
HBsAg levels in serum (Average ± SD) (D56, 15_1 7.5 mg/kg weekly, VI 100 mg/kg QOD, or combination of both): 1.56 ± 0.77
